Patent publication US8614206B2 (Genentech, Inc., priority 2011, dated 2013)

Target: PIM1 (Homo sapiens (Human), UniProt P11309)
Assay: Pim kinase inhibition, PIM1 LC3K (Example 901)
Assay type: biochemical
From the text: Determination of the Pim kinase activity of a Formula I compound is possible by a number of direct and indirect detection methods.

Sequence of PIM1 (P11309 whole entry): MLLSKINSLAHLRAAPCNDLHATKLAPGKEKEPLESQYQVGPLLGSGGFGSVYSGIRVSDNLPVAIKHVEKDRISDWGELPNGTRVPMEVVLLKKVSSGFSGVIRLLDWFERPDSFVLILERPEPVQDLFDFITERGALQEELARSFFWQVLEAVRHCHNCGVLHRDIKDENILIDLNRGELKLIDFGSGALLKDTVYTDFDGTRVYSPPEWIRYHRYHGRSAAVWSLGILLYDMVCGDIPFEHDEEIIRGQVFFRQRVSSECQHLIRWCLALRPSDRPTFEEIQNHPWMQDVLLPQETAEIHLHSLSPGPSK

Row | SMILES | Ki [nM]
1 | Cn1ncc(NC(=O)c2nc(-c3ccccc3F)cnc2N)c1N1CC[C@H](N)CC(F)(F)C1 [Example 247, (S)-3-amino-N-(5-(5-amino-3,3-difluoroazepan-1-yl)-1-methyl-1H-pyrazol-4-yl)-6-(2-fluorophenyl)pyrazine-2-carboxamide] | 0.01
2 | Nc1sc(-c2c(F)cccc2F)nc1C(=O)Nc1cnn(CC(F)(F)F)c1N1CCCCC(N)C1 (centres unmarked) [Example 302, 5-Amino-2-(2,6-difluoro-phenyl)-thiazole-4-carboxylic acid [5-(3-amino-azepan-1-yl)-1-(2,2,2-trifluoro-ethyl)-1H-pyrazol-4-yl]-amide] | 0.175
3 | Cc1ccc(F)c(-c2nc(C(=O)Nc3cnn(C)c3N3CC[C@@H](F)[C@@H](N)CC3)c(N)s2)c1 [Example 272, 5-amino-N-(5-((4S,5R)-4-amino-5-fluoroazepan-1-yl)-1-methyl-1H-pyrazol-4-yl)-2-(2-fluoro-5-methylphenyl)thiazole-4-carboxamide] | 0.147
4 | Cn1ncc(NC(=O)c2nc(-c3cncc(C#N)c3)sc2N)c1N1CC[C@@H](N)[C@H](F)CC1 [Example 444, 5-amino-N-[5-[(4R,5R)-4-amino-5-fluoro-azepan-1-yl]-1-methyl-pyrazol-4-yl]-2-(5-cyano-3-pyridyl)thiazole-4-carboxamide] | 35.4
5 | Cc1ccc(F)c(-c2nc(C(=O)Nc3cnn(C)c3N3CC[C@@H](N)CC(F)(F)C3)c(N)s2)c1 [Example 285] | 0.018
6 | COC1CCN(c2c(NC(=O)c3nc(-c4c(F)cccc4F)sc3N)cnn2C2CC2)CCC1N (single isomer, unassigned) [Example 401, 5-amino-N-[5-(4-amino-5-methoxy-azepan-1-yl)-1-cyclopropyl-pyrazol-4-yl]-2-(2,6-difluorophenyl)thiazole-4-carboxamide] | 0.059
7 | Cn1ncc(NC(=O)c2nc(-c3ccccc3F)cnc2N)c1N1CCC(N)C(F)CC1 (single isomer, unassigned) [Example 244, 3-amino-N-(5-(4-amino-5-fluoroazepan-1-yl)-1-methyl-1H-pyrazol-4-yl)-6-(2-fluorophenyl)pyrazine-2-carboxamide] | 0.141
8 | Cn1ncc(NC(=O)c2nc(-c3ccccc3F)ccc2N)c1N1CCC(N)CC(F)(F)C1 (racemic) [Example 292, 3-amino-N-(5-(5-amino-3,3-difluoroazepan-1-yl)-1-methyl-1H-pyrazol-4-yl)-6-(2-fluorophenyl)picolinamide] | 0.021
9 | Cn1ncc(NC(=O)c2nc(-c3c(F)cccc3F)sc2N)c1N1CCC[C@H](NCC2(C)COC2)CC1 [Example 334, 5-amino-2-(2,6-difluorophenyl)-N-[1-methyl-5-[(4S)-4-[(3-methyloxetan-3-yl)methylamino]azepan-1-yl]pyrazol-4-yl]thiazole-4-carboxamide] | 0.295
10 | CCn1ncc(NC(=O)c2nc(-c3c(F)cccc3F)sc2N)c1N1CC[C@H](OC)[C@@H](N)CC1 [Example 364, 5-amino-N-(5-((4S,5S)-4-amino-5-methoxyazepan-1-yl)-1-ethyl-1H-pyrazol-4-yl)-2-(2,6-difluorophenyl)thiazole-4-carboxamide] | 0.247
11 | Cn1ncc(NC(=O)c2nc(-c3ccccc3F)ccc2N)c1N1CCC(N)C(F)CC1 (single isomer, unassigned) [Example 246, 3-amino-N-(5-(4-amino-5-fluoroazepan-1-yl)-1-methyl-1H-pyrazol-4-yl)-6-(2-fluorophenyl)picolinamide] | 0.149
12 | Cn1ncc(NC(=O)c2nc(-c3c(F)cccc3F)sc2N)c1N1CCC(N)C2(CCO2)CC1 (single isomer, unassigned) [Example 501, 5-amino-N-[5-(5-amino-1-oxa-8-azaspiro[3.6]decan-8-yl)-1-methyl-pyrazol-4-yl]-2-(2,6-difluorophenyl)thiazole-4-carboxamide] | 0.025
13 | Cn1ncc(NC(=O)c2nc(-c3ccccc3F)ccc2N)c1N1CCC(N)C(F)CC1 (single isomer, unassigned) [Example 245, 3-amino-N-(5-(4-amino-5-fluoroazepan-1-yl)-1-methyl-1H-pyrazol-4-yl)-6-(2-fluorophenyl)picolinamide] | 0.173
14 | Cn1ncc(NC(=O)c2nc(-c3c(F)cccc3F)sc2N)c1N1CCC[C@H](N(CC2COC2)CC2COC2)CC1 [Example 343, 5-amino-N-[5-[(4S)-4-[bis(oxetan-3-ylmethyl)amino]azepan-1-yl]-1-methyl-pyrazol-4-yl]-2-(2,6-difluorophenyl)thiazole-4-carboxamide] | 0.962
15 | CCn1ncc(NC(=O)c2nc(-c3ccccc3F)sc2N)c1N1CCC(N)C(F)CC1 (single isomer, unassigned) [Example 374, 5-amino-N-[5-(4-amino-5-fluoro-azepan-1-yl)-1-ethyl-pyrazol-4-yl]-2-(2-fluorophenyl)thiazole-4-carboxamide] | 0.346
16 | Cc1ccc(F)c(-c2nc(C(=O)Nc3cnn(C)c3N3CCNCC(F)(F)C3)c(N)s2)c1 [Example 105, 5-Amino-N-(5-(6,6-difluoro-1,4-diazepan-1-yl)-1-methyl-1H-pyrazol-4-yl)-2-(2-fluoro-5-methylphenyl)thiazole-4-carboxamide] | 0.019

Row | SMILES | Ki [nM]
17 | CCn1ncc(NC(=O)c2nc(-c3c(F)cccc3F)sc2N)c1N1CCC(N)C(OC)CC1 (single isomer, unassigned) [Example 389, 5-amino-N-[5-(4-amino-5-methoxy-azepan-1-yl)-1-ethyl-pyrazol-4-yl]-2-(2,6-difluorophenyl)thiazole-4-carboxamide] | 0.624
18 | Cn1ncc(NC(=O)c2nc(-c3cc(C#N)ccc3F)sc2N)c1N1CC[C@@H](N)[C@H](F)CC1 [Example 442, 5-amino-N-[5-[(4R,5R)-4-amino-5-fluoro-azepan-1-yl]-1-methyl-pyrazol-4-yl]-2-(5-cyano-2-fluoro-phenyl)thiazole-4-carboxamide] | 1.08
19 | Cn1ncc(NC(=O)c2nc(-c3c(F)cccc3F)sc2N)c1N1CCNCC(C#N)C1 (centres unmarked) [Example 382, 5-amino-N-[5-(6-cyano-1,4-diazepan-1-yl)-1-methyl-pyrazol-4-yl]-2-(2,6-difluorophenyl)thiazole-4-carboxamide] | 2.81
20 | Cn1ncc(NC(=O)c2nc(-c3c(F)cccc3F)sc2N)c1N1CCCN(C2CNC2)CC1 [Example 362, 5-amino-N-[5-[4-(azetidin-3-yl)-1,4-diazepan-1-yl]-1-methyl-pyrazol-4-yl]-2-(2,6-difluorophenyl)thiazole-4-carboxamide] | 0.25
21 | COC1(C)CC(N)CCN(c2c(NC(=O)c3nc(-c4ccncc4F)sc3N)cnn2C)C1 (centres unmarked) [Example 475, 5-amino-N-[5-(5-amino-3-methoxy-3-methyl-azepan-1-yl)-1-methyl-pyrazol-4-yl]-2-(3-fluoro-4-pyridyl)thiazole-4-carboxamide] | 0.212
22 | Cc1ncccc1-c1nc(C(=O)Nc2cnn(C)c2N2CC[C@@H](N)[C@H](F)CC2)c(N)s1 [Example 430, 5-amino-N-[5-[(4R,5R)-4-amino-5-fluoro-azepan-1-yl]-1-methyl-pyrazol-4-yl]-2-(2-methyl-3-pyridyl)thiazole-4-carboxamide] | 1.17
23 | Nc1sc(-c2c(F)cccc2F)nc1C(=O)Nc1cnn(C2CC2)c1N1CCC(N)C(F)CC1 (single isomer, unassigned) [Example 332, 5-amino-N-[5-(4-amino-5-fluoro-azepan-1-yl)-1-cyclopropyl-pyrazol-4-yl]-2-(2,6-difluorophenyl)thiazole-4-carboxamide] | 0.148
24 | Cn1ncc(NC(=O)c2nc(-c3ncccc3F)sc2N)c1N1CC[C@@H](N)[C@H](F)CC1 [Example 268, 5-amino-N-(5-((4R,5R)-4-amino-5-fluoroazepan-1-yl)-1-methyl-1H-pyrazol-4-yl)-2-(3-fluoropyridin-2-yl)thiazole-4-carboxamide] | 0.186
25 | CO[C@@H]1CCN(c2c(NC(=O)c3nc(-c4c(F)cccc4F)sc3N)cnn2C2CC2)CC[C@@H]1N [Example 386, 5-amino-N-(5-((4S,5R)-4-amino-5-methoxyazepan-1-yl)-1-cyclopropyl-1H-pyrazol-4-yl)-2-(2,6-difluorophenyl)thiazole-4-carboxamide] | 0.103
26 | Cn1ncc(NC(=O)c2nc(-c3cc(F)ccc3F)sc2N)c1N1CC[C@@H](N)[C@@H](F)CC1 [Example 271, 5-amino-N-(5-((4R,5S)-4-amino-5-fluoroazepan-1-yl)-1-methyl-1H-pyrazol-4-yl)-2-(2,5-difluorophenyl)thiazole-4-carboxamide] | 0.058
27 | Cn1ncc(NC(=O)c2nc(-c3cncc(F)c3)sc2N)c1N1CCC[C@H](N)CC1 [Example 420, 5-amino-N-[5-[(4S)-4-aminoazepan-1-yl]-1-methyl-pyrazol-4-yl]-2-(5-fluoro-3-pyridyl)thiazole-4-carboxamide] | 4.25
28 | Cn1cc(-c2nc(C(=O)Nc3cnn(C)c3N3CCC[C@H](N)CC3)c(N)s2)cn1 [Example 419, 5-amino-N-[5-[(4S)-4-aminoazepan-1-yl]-1-methyl-pyrazol-4-yl]-2-(1-methylpyrazol-4-yl)thiazole-4-carboxamide] | 0.785
29 | Cc1ccc(F)c(-c2nc(C(=O)Nc3cnn(C4CC4)c3N3CCC(N)C(F)CC3)c(N)s2)c1 (centres unmarked) [Example 330, 5-amino-N-[5-(4-amino-5-fluoro-azepan-1-yl)-1-cyclopropyl-pyrazol-4-yl]-2-(2-fluoro-5-methyl-phenyl)thiazole-4-carboxamide] | 0.087
30 | Cc1ccc(F)c(-c2nc(C(=O)Nc3cnn(C)c3N3CC[C@@H](N)[C@@H](F)CC3)c(N)s2)c1 [Example 265, 5-amino-N-(5-((4R,5S)-4-amino-5-fluoroazepan-1-yl)-1-methyl-1H-pyrazol-4-yl)-2-(2-fluoro-5-methylphenyl)thiazole-4-carboxamide] | 0.038
31 | CC(=O)NC1(C)CCCN(c2c(NC(=O)c3nc(-c4ncccc4F)sc3N)cnn2C)CC1 (centres unmarked) [Example 384, N-[5-(4-acetamido-4-methyl-azepan-1-yl)-1-methyl-pyrazol-4-yl]-5-amino-2-(3-fluoro-2-pyridyl)thiazole-4-carboxamide] | 0.613
32 | COC1(C)CC(N)CCN(c2c(NC(=O)c3nc(-c4c(F)cncc4F)sc3N)cnn2C)C1 (centres unmarked) [Example 474, 5-amino-N-[5-(5-amino-3-methoxy-3-methyl-azepan-1-yl)-1-methyl-pyrazol-4-yl]-2-(3,5-difluoro-4-pyridyl)thiazole-4-carboxamide] | 0.425
